Measured values taken from patent US12440500B2, “Phytoecdysones and the derivatives thereof for use in the treatment of neuromuscular diseases” (BIOPHYTIS, priority 2019, dated 2025).

Assays:
[1] = system: SMA mice (FVB/NRj-SmnΔ7/Δ7 huSMN2+/+ 2 copies); test: Phenotypic analysis: weight and survival of severe SMA mice under daily gavage; assay type: in vivo, mouse
Excerpt: A severe SMA mouse model was used on an FVB/NRj gene pool, characterized by the invalidation of the exon 7 of the murine gene Smn and expressing 2 copies of the human transgene SMN2 (Smn^Δ7/Δ7; huSMN2^+/+) (Hsieh et al., 2000). The mice resulting from these crossings having the “FVB/NRj-Smn^Δ7/Δ7 huSMN2^+/+ 2 copies” genotype are described as “SMA”. These mice are characterized by progressive growth failure which is observed starting from 4 days post-natal and have a degeneration of about 50% of the motor neurons of the ventral horn of the spinal cord at the end of life, progressive muscular atrophy and an average lifespan of about 12 days (Hsieh et al., 2000). The mice having the “FVB/NRj-Smn^+/Δ7 huSMN2^++ 2 copies” genotype have no particular phenotype and are used as so-called “control” mice. The mice were treated via daily gavage of a dose of 50 mg/kg, either with the molecule BIO101 complexed to a vehicle (cyclodextrin in the present case), or with the vehicle alone (VH). The weight and the survival were analyzed on a daily basis until P11. In the rest of the description, n corresponds to the size of the sample and p corresponds to the “p value” used to quantify the statistical significance of a result.
The same type II murine model was used to characterize the phenotypic effects of the molecule BIO103 in a severe SMA model. The mice were treated via daily gavage of a dose of 50 mg/kg, either with the molecule BIO103 complexed with the vehicle (cyclodextrin in the present case), or with the vehicle alone (VH). The weight and the survival were analyzed on a daily basis until P11.

[2] = system: muscles Soleus, Plantaris and Tibialis of SMA mice; test: Histological analysis of muscle cross-sections (Hematoxylin-Eosin): number and cross-section surface of muscle fibers; assay type: in vivo, mouse
Experimental: At P11, one hour after their last gavage, the treated mice were anaesthetized with pentobarbital 1% at 6 μL/g of mouse then the extensor muscles Soleus, with a mixed typology, extensor Plantaris, with a fast typology, and flexor Tibialis, with a fast typology, were sampled in order to conduct histological or molecular studies. After sampling, the muscles Soleus, Plantaris and Tibialis were included individually in a preservation medium then frozen in cooled isopentane. For each muscle, medial cross-sections 10 μm thick were realized. These sections were stained with Hematoxyline-Eosin, dehydrated and mounted in an inclusion medium. The images of these sections were taken with a microscope (with a magnification ×200). In order to obtain images with an impression of relief, the differential interference contrast technique was used. From these images, the number of muscle fibers of each muscle and the cross-section surface of 20% of these fibers were counted using image processing software (FIG. 2).

[3] = system: muscles; conditions: rats in vivo; cited from earlier work
[4] = system: murine myotubes C2C12; conditions: murine myotubes C2C12 in vitro; cited from earlier work
[5] = young athletes; cited from earlier work

Compound	survival at P11 ([1]; 50 mg/kg daily gavage P0 to P11) [%]	loss of weight of the animals ([1]; 50 mg/kg daily gavage from birth to P11, versus vehicle)	atrophy of the muscle fibers (cross-section surface) in relation to healthy control mice ([2]; Plantaris, P11, SMA mice treated P0 to P11 (SMA vehicle 46%)) [%]	atrophy of the muscle fibers (cross-section surface) in relation to healthy control mice ([2]; Soleus, P11, SMA mice treated P0 to P11 (SMA vehicle 50.2%)) [%]	atrophy of the muscle fibers (cross-section surface) in relation to healthy control mice ([2]; Tibialis, P11, SMA mice treated P0 to P11 (SMA vehicle 56.1%)) [%]	proportion of fibers with cross-section surface greater than 400 μm^2 ([2]; Tibialis, versus SMA vehicle)	proportion of small fibers with cross-section surface less than 200 μm^2 ([2]; Tibialis, versus SMA vehicle, p<0.05)	effects on protein syntheses in muscles [3]	effects on protein syntheses [4]	muscle mass [5]
CCSCC(=O)[C@H]1CC[C@@]2(O)C3=CC(=O)[C@@H]4C[C@@H](O)[C@@H](O)C[C@]4(C)C3CC[C@]12C (stereo partly drawn) [BIO103, (2S,3R,5R,10R,13R,14S,17S)-17-(2-ethylsulfanylacetyl)-2,3,14-trihydroxy-10,13-dimethyl-2,3,4,5,9,11,12,15,16,17-decahydro-1H-cyclopenta[a]phenanthren-6-one]	66.6	tends to limit	15.3	37.1	22.1	significant increase	decreases significantly			
CC(C)(O)CC[C@@H](O)[C@](C)(O)[C@H]1CC[C@@]2(O)C3=CC(=O)[C@@H]4C[C@@H](O)[C@@H](O)C[C@]4(C)[C@H]3CC[C@]12C [20-hydroxyecdysone]								stimulating effects	stimulating effects	favors the increase
